Experimental data from US20200316087A1, “NOVEL COMBINATION THERAPY FOR ANXIETY DISORDERS, EPILEPSY, AND PAIN” (priority 2017, published 2020).
Entries after “also recorded” stand apart in the source; their conditions may differ.

How the values were obtained:
[1] = tested on: seizures in amygdala kindled rats; assay: Basolateral amygdala kindling; assay type: in vivo; details: for After-Discharge Duration to Criteria: MED for producing after-discharge duration ≤30 sec; for After-Discharge Threshold to Criteria: MED for producing after-discharge threshold ≥3; for Seizure Severity to Criteria: MED for producing seizure severity score ≤2; for After-Discharge Duration Potency (MED) / After-Discharge Threshold Potency (MED) / Seizure Severity Poteny (MED) / effect on adjusted after-discharge threshold (ADT) / effect on after-discharge duration (ADD) / effect on seizure severity score / kindling measures / Seizure free scores (seizure severity=0): amygdala kindled rats; for Seizure free scores (seizure severity=0): groups of 8
Procedure: Seizure kindling models evaluate effects of drugs on the sensitization of the nervous system to seizure induction. In this test, drugs were evaluated for their ability to impact seizure parameters in rats that were fully kindled by daily electrical stimulation of their amygdala. Valproic acid was used as a positive control. Experiments were conducted using the general procedures of Zwart et al. (J. Pharmacol. Exp. Ther., 2014, 351:124-133). A bipolar electrode for electrical stimulation and EEG recording was stereotaxically implanted into one hemisphere of the basolateral amygdala (AP −2.2, ML −4.8, DV −8.5 mm, relative to bregma) of male Wistar rats. After post-operative recovery, electrical kindling begins, where a subthreshold constant current (400 μA, 1 ms, monophasic square-wave pulses, 60 Hz for 1 sec) is given once a day Monday-Friday for about 4-6 weeks until a rat is fully kindled. A fully kindled rat has experienced 10 consecutive stage 5 seizures or 10 of its last 12 were stage 5 according to the Racine Scale.
Twelve fully kindled rats were assigned to this study, and eight rats were selected and randomized to initial compound treatment groups from baseline after discharge threshold (ADT), seizure severity score, and after discharge duration (ADD). […] On test day, rats were dosed 30 min prior to beginning stimulation. After the pre-treatment, rats were stimulated using an ascending staircase sequence beginning at 10 μA and increasing in log unit steps of 10, 16, 25, 40, 65, 100, 160, 250, and 400 μA. Animals were stimulated until they were assigned a Seizure Severity Score for a visually observably seizure or they reached the 400 μA threshold limit. ADD was determined following testing. ADT was the current that induced a seizure; measurements were scale-adjusted to capture the stimulation scale change required to observe a seizure from the previous baseline to the ADT scored on test day. […] The average scale adjusted ADT was approximately 0.63 μA in vehicle treated rats.
Racine score of behavioral response to stimulation: 0=no behavioral response; 1=immobility, staring and/or facial clonus; 2=head nodding, jaw clonus, and/or tongue protrusion; 3=unilateral forelimb clonus; 4=bilateral forelimb clonus and/or rearing; 5=bilateral forelimb clonus with rearing and loss of balance.
After-Discharge Duration (ADD) is the duration of the first after-discharge.
ADT, ADD, and severity scores were analyzed by ANOVA. Seizure severity data was also analyzed by the nonparametric Skillings-Mack test, a generalization of the Friedman test for one-way repeated measures designs. Posthoc tests when reported were either by Dunnett's method (seizure severity) or using Wilcoxon sign rank tests (ADT and ADD). Valproic acid, used as a positive control was not used in ANOVA calculations.

[2] = tested on: resected human cortical tissue from epileptic patients; assay: Human epileptic cerebral cortex slice electrophysiology; assay type: cell-based; details: 30 μM
Procedure: The tissue was prepared and treated as previously described (Zwart et al., J. Pharmacal. Exp. Ther., 2014, 351:124-133). Slices were maintained at 37° C. and were perfused at 1.0 ml/min first with normal ACSF (NACSF) solution for one hour to see if the tissue was spontaneously active. […] Tissue was then recorded in EACSF with a concentration of 10 μM picrotoxin for 1 hr. Subsequently, tissue was recorded in EACSF with a concentration of 10 μM of picrotoxin with 30 μM KRM-II-81 and recorded for 1 hour. Following the KRM-II-81 addition, tissue was recorded in a washout solution of EACSF and 10 μM Picrotoxin for 1 hr. The concentration of KRM-II-81 was based upon data collected in human cortical slices with perampanel and upon the need to be conservative in concentration estimates to maximize the opportunity to see an effect given limited human tissue opportunities. A second experiment was conducted using […] (50 μM) as an activator instead of picrotoxin.
Recordings were performed on microelectrode arrays of 60 electrodes as previously described (Zwart et al., J Pharmacol. Exp. Ther., 2014, 351:124-133). LFPs with sharp negative peaks below a threshold set at 3 standard deviations of the signal were marked, and the time of the maximum excursion was recorded as the time of that LFP. Time points were binned at 4 ms. […]

6 Hz-induced seizures = assay: 6 Hz (44 mA) seizure model; assay type: in vivo; details: mice; for Number protected/number tested: 2 hr post dosing
Description: (§1) This seizure model is utilized to screen for drugs that might […] by other screening approaches. For example, the highly used anticonvulsant leviteracetam was effective in this test but not in the pentylenetetrazole assay. Adult, male mice were subjected to 6 Hz stimulation at 44 mA as originally described by Barton et al. (Epilepsy Res. 2001; 47:217-27) and conducted per protocol of the NTH Anticonvulsant Screening Program (available online from the National Institute of Neurological Disorders and Stroke—6 Hz 44 mA Psychomotor Seizure Model, Mouse). Briefly, a mouse was dosed with KRM-II-81, p.o., and 2 hr later given 6 Hz stimulation for 3 sec delivered through corneal electrodes at 44 mA and observed for the presence or absence of seizure activity. A separate group of mice was dosed with higher doses of KRM-II-81 and observed for potential deficits in motor performance and overt signs of toxicity at 4 hr post dosing.

[3] = Unbound plasma and brain concentrations after i.p. dosing; assay type: in vivo, rats; details: for Unbound brain concentration / Unbound plasma concentration: male Sprague-Dawley rats, n=3, mean ± S.E.M.
Description: (§2) (Table 4). Using these unbound drug concentrations, the PI based on drug levels in plasma was 3 and that based upon brain drug levels was 3.8.

motor performance = assay: Observed motor effects / overt toxicity 4 hr after oral dosing; assay type: in vivo; details: for Observation (motor effects) / Number with observed motor effects: 4 hr post dosing, mice
Description: as §1

anticonvulsant efficacy = assay: ED50 for anticonvulsant efficacy (model not stated); assay type: in vivo; details: Rattus norvegicus, ip, rats
Description: as §2

SMILES: C#Cc1ccc2c(c1)C(c1ccccc1)=NCc1c(-c3cnco3)ncn1-2 [KRM-II-82, 5-(8-ethynyl-6-phenyl-4H-benzo[f]imidazo[1,5-a][1,4]diazepin-3-yl)oxazole]
- After-Discharge Duration to Criteria [1]: >30 mg/kg
- After-Discharge Threshold to Criteria [1]: 30 mg/kg
- Seizure Severity to Criteria [1]: >30 mg/kg
- After-Discharge Duration Potency (MED) [1]: >30 mg/kg
- After-Discharge Threshold Potency (MED) [1]: 10 mg/kg
- Seizure Severity Poteny (MED) [1]: 10 mg/kg
- effect on adjusted after-discharge threshold (ADT) [1]: significantly increased
- effect on after-discharge duration (ADD) [1]: trend for a significant effect
- effect on seizure severity score / kindling measures [1]: trend toward efficacy
- Seizure free scores (seizure severity=0) [1]: 1/8

SMILES: C#Cc1ccc2c(c1)C(c1ccccn1)=NCc1c(-c3cnco3)ncn1-2 [KRM-II-81, 5-(8-ethynyl-6-(pyridin-2-yl)-4H-benzo[f]imidazo[1,5-a][1,4]diazepin-3-yl)oxazole]
- firing rate ([2]; firing stimulated with AP-4 (50 μM), baseline 0.08±0.01): 0.01±0.005 Hz
- average firing rate ([2]; in presence of 10 μM picrotoxin, baseline 0.05±0.01 Hz): 0.01±0.005 Hz
- Number protected/number tested (6 Hz-induced seizures; dose 10, p.o.): 0/8
- Number protected/number tested (6 Hz-induced seizures; dose 25, p.o.): 3/8
- Number protected/number tested (6 Hz-induced seizures; dose 50, p.o.): 7/8
- 6 Hz Potency (MED) (6 Hz-induced seizures; p.o., doses 10-50 mg/kg): 50 mg/kg
- Unbound brain concentration ([3]; 17.3 mg/kg i.p.): 1.64 ± 0.141 µM
- Unbound plasma concentration ([3]; 17.3 mg/kg i.p.): 3.29 ± 0.107 µM
- Unbound brain concentration ([3]; 121 mg/kg i.p.): 6.25 ± 1.652 µM
- Unbound plasma concentration ([3]; 121 mg/kg i.p.): 10 ± 2.147 µM
- 121/17.3 Ratio, brain ([3]; ratio of unbound brain concentrations at 121 and 17.3 mg/kg i.p.): 3.81
- 121/17.3 Ratio, plasma ([3]; ratio of unbound plasma concentrations at 121 and 17.3 mg/kg i.p.): 3.04
- loss of righting (mice affected) (motor performance; 150 mg/kg p.o.): 1/8
- loss of righting (mice affected) (motor performance; 200 mg/kg p.o.): 1/8
- more severe tremor (mice affected) (motor performance; 200 mg/kg p.o.): 1/8
- Observation (motor effects) (motor performance; dose 100 mg/kg, p.o.): Mild tremor; also recorded: tremors
- Number with observed motor effects (motor performance; dose 50, p.o.): 0/8
- Number with observed motor effects (motor performance; dose 100, p.o.): 3/8
- Number with observed motor effects (motor performance; dose 150, p.o.): 5/8
- Observation (motor effects) (motor performance; dose 150, p.o.): tremor, unable to grasp
- Number with observed motor effects (motor performance; dose 200, p.o.): 8/8
- Observation (motor effects) (motor performance; dose 200, p.o.): more severe tremor'; also recorded: loss of righting
- After-Discharge Duration to Criteria [1]: 10 mg/kg
- After-Discharge Threshold to Criteria [1]: 10 mg/kg
- Seizure Severity to Criteria [1]: 10 mg/kg
- After-Discharge Duration Potency (MED) [1]: 10 mg/kg
- After-Discharge Threshold Potency (MED) [1]: 10 mg/kg
- Seizure Severity Poteny (MED) [1]: 10 mg/kg
- effect on adjusted after-discharge threshold (ADT) [1]: significantly increased
- effect on after-discharge duration (ADD) [1]: significant decreases
- effect on seizure severity score / kindling measures [1]: most efficacious and potent
- Seizure free scores (seizure severity=0) [1]: 7/8
- ED50 (anticonvulsant efficacy): 17.3 mg/kg
